Measured values from ChEMBL document CHEMBL5465560, “Selectivity Literature for EUbOPEN Chemogenomic Library” (2024).
Blank lines part the entries; values can stand above or below the molecule they belong to.

Key:
[1] = molecular target: AP2-associated protein kinase 1 (Homo sapiens, UniProt Q2M2I8); settings: at 10 µM
[2] = molecular target: Cyclin-dependent kinase 7 (Homo sapiens, UniProt P50613); settings: at 10 µM
[3] = molecular target: T1, Serine/threonine-protein kinase RIO1 (Homo sapiens) (UniProt Q9BRS2); test: Selectivity interaction (KINOMEscan (DiscoverX)) EUB0001868a RIOK1; settings: at 1 µM
T1 sequence (whole entry): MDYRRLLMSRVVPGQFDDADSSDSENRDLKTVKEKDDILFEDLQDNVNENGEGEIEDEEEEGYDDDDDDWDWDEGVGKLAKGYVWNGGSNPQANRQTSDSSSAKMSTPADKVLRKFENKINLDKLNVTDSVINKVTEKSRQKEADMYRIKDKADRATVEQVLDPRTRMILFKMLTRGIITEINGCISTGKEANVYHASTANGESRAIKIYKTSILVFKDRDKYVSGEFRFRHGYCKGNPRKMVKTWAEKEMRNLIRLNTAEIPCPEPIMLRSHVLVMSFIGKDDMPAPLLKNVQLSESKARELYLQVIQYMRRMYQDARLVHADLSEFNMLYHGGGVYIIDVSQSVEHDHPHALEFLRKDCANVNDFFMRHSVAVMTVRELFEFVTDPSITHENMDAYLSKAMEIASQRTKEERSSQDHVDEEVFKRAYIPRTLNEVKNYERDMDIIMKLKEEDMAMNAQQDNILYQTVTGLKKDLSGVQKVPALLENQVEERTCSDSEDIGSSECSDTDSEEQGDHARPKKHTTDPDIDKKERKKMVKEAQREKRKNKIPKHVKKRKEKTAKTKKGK

[4] = molecular target: Serine/threonine-protein kinase PAK 4 (Homo sapiens, UniProt O96013); test: Selectivity interaction (Ambit KINOMEscan and KiNATiv profiling in Jurkat cells) EUB0000090b PAK4; assay type: cell-based; settings: at 1 µM
[5] = molecular target: T2, Aurora kinase A (Homo sapiens) (UniProt O14965); test: Selectivity interaction (Kinase panel (DSF assay)) EUB0001489b STK6
T2 sequence (whole entry): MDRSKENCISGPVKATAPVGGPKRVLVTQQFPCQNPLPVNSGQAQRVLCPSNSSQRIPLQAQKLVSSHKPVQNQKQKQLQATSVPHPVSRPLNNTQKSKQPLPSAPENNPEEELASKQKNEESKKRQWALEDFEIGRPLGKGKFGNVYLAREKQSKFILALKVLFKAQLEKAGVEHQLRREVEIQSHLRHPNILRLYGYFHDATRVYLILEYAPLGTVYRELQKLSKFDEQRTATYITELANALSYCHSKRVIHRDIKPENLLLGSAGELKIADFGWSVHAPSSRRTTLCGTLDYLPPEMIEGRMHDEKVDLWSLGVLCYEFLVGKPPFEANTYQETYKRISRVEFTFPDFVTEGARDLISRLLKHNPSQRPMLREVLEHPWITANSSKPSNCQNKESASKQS

[6] = molecular target: Serine/threonine-protein kinase N2 (Homo sapiens, UniProt Q16513); test: Selectivity interaction (Kinase panel (33PanQinase(R) Activity Assay)) EUB0000877a PKN2
[7] = molecular target: Phosphorylase b kinase gamma catalytic chain, skeletal muscle/heart isoform (Homo sapiens) (UniProt Q16816); test: Selectivity interaction (Kinase panel (Z-LYTE Assay)) EUB0001632a PHKG1; settings: at 10 µM
[8] = molecular target: TRAF2 and NCK-interacting protein kinase (Homo sapiens) (UniProt Q9UKE5); settings: at 10 µM
[9] = molecular target: Tyrosine-protein kinase Lck (Homo sapiens, UniProt P06239); test: Selectivity interaction (KinomeScan (DiscoverX)) EUB0000595a LCK; settings: at 10 µM
[10] = molecular target: Dual specificity protein kinase CLK4 (Homo sapiens, UniProt Q9HAZ1); test: Selectivity interaction (KinomeScan (DiscoverX)) EUB0000229b CLK4; settings: at 10 µM
[11] = molecular target: Serine/threonine-protein kinase 33 (Homo sapiens) (UniProt Q9BYT3); test: Selectivity interaction (ProQinase) EUB0000171b STK33
[12] = molecular target: T3, Serine/threonine-protein kinase TAO3 (Homo sapiens) (UniProt Q9H2K8); test: Selectivity interaction (KinomeScan (DiscoverX)) EUB0000666a TAOK3; settings: at 10 µM
T3 sequence (whole entry): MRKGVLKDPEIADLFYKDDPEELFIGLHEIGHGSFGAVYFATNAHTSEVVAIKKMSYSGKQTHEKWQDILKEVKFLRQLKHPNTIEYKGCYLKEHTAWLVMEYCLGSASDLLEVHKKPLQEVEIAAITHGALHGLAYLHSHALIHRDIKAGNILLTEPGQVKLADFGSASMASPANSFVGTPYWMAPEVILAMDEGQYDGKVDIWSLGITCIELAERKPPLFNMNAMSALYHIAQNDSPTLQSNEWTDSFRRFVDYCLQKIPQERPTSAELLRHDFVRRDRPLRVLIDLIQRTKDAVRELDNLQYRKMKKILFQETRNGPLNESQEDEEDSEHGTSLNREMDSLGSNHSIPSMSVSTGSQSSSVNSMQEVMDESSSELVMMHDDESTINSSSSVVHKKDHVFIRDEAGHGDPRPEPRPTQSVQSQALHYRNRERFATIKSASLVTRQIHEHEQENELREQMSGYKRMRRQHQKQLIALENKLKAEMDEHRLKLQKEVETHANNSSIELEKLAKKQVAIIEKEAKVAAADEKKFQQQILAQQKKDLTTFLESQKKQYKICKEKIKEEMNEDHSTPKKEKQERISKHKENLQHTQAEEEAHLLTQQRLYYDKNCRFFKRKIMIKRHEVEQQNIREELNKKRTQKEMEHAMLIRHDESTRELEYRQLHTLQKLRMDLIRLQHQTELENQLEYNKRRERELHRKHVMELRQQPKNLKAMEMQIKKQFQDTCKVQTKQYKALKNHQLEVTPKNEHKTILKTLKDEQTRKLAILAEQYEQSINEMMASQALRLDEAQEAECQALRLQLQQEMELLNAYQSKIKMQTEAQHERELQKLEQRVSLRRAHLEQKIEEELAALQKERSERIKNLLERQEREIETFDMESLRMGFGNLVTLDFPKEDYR

Chain of Serine/threonine-protein kinase 33 (Homo sapiens) (Q9BYT3 whole entry, looked up): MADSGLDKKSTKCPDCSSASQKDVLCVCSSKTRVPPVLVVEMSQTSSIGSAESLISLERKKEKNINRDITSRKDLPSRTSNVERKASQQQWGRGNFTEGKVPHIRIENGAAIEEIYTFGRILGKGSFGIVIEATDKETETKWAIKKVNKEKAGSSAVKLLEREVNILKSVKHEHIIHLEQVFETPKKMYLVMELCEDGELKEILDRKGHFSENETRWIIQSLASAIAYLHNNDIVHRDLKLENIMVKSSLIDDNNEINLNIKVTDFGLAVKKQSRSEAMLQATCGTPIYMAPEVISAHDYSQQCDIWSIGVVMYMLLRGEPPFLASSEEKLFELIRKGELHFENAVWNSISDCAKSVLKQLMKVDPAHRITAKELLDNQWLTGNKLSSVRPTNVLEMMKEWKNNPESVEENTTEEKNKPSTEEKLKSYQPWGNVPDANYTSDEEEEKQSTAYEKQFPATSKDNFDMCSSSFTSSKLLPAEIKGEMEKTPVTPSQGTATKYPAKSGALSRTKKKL
Chain of Dual specificity protein kinase CLK4 (Q9HAZ1 whole entry, looked up): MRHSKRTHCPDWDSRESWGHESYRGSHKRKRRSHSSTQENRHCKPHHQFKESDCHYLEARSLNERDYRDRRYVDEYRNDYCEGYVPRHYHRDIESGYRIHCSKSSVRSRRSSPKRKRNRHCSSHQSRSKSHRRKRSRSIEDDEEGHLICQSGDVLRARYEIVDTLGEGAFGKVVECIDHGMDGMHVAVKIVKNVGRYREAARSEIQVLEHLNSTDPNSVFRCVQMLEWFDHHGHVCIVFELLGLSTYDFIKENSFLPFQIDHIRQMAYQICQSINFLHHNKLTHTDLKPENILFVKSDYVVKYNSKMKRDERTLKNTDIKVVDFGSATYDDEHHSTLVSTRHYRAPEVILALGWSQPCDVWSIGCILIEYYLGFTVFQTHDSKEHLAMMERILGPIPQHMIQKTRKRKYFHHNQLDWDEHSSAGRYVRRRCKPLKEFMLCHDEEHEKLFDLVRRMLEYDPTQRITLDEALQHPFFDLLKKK
Chain of Serine/threonine-protein kinase N2 (Q16513 whole entry, canonical isoform): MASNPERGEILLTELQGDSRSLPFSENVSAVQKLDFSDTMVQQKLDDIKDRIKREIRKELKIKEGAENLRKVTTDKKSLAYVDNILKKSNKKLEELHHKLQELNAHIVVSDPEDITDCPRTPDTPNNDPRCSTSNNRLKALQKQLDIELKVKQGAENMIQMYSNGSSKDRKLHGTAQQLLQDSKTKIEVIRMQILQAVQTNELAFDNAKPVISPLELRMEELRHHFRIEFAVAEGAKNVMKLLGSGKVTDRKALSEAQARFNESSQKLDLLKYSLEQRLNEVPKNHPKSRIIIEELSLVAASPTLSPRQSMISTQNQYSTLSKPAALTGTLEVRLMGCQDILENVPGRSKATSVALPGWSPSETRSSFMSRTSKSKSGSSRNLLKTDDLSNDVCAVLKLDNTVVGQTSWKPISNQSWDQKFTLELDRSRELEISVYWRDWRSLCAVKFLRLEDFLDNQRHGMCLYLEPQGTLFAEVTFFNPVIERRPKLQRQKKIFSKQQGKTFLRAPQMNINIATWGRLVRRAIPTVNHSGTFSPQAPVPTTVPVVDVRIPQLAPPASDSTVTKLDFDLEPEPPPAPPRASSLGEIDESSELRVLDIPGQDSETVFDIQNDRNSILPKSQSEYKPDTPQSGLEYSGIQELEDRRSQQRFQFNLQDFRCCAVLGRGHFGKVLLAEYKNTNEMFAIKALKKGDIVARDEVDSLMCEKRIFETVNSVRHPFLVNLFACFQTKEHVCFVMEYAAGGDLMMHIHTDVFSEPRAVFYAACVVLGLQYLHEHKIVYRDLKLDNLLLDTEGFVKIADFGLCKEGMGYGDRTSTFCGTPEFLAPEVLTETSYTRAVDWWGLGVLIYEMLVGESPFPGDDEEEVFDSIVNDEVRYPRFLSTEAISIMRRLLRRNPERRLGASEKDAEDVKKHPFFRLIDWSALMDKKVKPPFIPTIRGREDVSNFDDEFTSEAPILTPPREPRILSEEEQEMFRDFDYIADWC
Chain of Phosphorylase b kinase gamma catalytic chain, skeletal muscle/heart isoform (Homo sapiens) (Q16816 whole entry, looked up, canonical isoform): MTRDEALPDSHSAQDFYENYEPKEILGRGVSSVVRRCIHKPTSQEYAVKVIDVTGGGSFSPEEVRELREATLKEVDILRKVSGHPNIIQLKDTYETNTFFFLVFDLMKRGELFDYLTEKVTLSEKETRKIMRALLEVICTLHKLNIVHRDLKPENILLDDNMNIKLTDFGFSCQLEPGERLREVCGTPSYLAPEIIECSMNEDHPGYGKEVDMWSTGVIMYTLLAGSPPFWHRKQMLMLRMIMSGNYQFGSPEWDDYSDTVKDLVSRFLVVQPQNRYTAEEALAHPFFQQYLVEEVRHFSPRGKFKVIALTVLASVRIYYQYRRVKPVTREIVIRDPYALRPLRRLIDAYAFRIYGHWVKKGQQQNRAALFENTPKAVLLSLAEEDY
Chain of TRAF2 and NCK-interacting protein kinase (Homo sapiens) (Q9UKE5 whole entry, looked up): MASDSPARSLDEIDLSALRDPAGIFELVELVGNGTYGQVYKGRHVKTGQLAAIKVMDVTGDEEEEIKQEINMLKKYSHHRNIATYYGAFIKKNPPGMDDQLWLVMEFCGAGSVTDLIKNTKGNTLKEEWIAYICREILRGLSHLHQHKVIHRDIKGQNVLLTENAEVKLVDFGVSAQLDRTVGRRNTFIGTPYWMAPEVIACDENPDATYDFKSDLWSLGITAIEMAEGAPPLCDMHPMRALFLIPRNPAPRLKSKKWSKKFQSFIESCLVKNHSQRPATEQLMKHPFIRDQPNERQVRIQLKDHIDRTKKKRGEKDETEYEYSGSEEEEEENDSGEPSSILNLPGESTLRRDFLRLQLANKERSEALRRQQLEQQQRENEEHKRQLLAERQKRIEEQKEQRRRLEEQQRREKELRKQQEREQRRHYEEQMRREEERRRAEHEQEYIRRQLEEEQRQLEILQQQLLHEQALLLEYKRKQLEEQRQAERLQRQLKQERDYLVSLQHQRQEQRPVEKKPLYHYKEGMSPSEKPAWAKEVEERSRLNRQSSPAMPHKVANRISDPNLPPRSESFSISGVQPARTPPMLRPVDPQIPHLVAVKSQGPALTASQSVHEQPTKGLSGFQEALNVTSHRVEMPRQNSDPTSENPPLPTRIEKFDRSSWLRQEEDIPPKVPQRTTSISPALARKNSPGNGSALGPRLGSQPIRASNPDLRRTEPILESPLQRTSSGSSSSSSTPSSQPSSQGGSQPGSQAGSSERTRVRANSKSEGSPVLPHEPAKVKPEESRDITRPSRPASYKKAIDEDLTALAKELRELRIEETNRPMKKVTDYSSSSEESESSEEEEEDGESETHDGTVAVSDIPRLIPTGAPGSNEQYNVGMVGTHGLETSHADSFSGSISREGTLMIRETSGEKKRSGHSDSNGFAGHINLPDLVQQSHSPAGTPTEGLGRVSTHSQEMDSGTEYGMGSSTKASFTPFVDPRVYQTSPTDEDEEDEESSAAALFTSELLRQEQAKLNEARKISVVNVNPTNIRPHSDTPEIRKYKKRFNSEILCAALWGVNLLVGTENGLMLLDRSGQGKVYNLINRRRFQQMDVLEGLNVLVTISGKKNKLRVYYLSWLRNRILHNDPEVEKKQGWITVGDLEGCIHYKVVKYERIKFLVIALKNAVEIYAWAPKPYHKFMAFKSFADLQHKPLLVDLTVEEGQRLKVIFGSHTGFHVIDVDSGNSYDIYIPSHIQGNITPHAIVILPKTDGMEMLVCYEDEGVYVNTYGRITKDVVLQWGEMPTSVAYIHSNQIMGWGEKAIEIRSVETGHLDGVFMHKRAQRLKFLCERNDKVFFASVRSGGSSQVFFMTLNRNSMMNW
Chain of AP2-associated protein kinase 1 (Q2M2I8 whole entry, looked up): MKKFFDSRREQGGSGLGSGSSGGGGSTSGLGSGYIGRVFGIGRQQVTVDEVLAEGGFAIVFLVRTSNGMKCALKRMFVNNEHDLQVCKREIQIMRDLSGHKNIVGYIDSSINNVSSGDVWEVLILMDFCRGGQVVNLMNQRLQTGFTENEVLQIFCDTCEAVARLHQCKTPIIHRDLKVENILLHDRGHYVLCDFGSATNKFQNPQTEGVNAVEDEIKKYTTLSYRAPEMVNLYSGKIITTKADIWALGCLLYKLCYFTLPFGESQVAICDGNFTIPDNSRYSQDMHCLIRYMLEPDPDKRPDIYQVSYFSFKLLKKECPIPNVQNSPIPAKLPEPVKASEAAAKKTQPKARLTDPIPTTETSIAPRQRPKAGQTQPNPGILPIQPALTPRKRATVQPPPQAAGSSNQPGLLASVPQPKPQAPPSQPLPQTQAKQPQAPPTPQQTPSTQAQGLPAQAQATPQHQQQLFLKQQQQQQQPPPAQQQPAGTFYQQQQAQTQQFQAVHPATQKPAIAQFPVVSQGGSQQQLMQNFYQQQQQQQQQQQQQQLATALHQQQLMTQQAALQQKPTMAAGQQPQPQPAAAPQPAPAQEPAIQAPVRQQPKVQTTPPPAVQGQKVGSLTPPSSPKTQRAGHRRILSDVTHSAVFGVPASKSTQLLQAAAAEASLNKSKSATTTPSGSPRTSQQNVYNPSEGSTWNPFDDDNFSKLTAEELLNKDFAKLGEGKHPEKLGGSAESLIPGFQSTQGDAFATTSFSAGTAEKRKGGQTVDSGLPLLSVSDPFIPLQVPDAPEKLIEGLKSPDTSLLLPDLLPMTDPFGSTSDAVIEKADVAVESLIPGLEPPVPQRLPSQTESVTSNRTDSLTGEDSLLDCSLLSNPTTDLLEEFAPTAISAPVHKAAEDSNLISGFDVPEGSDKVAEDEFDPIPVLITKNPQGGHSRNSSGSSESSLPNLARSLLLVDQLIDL
Chain of Cyclin-dependent kinase 7 (P50613 whole entry): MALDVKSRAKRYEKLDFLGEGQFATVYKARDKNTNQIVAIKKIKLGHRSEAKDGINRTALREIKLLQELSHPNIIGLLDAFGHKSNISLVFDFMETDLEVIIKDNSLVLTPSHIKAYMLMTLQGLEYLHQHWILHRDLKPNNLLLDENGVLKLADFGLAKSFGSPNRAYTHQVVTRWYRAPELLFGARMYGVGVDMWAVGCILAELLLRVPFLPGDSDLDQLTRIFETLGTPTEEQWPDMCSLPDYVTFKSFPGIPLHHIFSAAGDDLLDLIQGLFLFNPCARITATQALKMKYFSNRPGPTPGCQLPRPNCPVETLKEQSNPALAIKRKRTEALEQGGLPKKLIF

SMILES: Cc1cc([C@@H](C)Nc2ccccc2C(=O)O)c2nc(N3CCOCC3)cc(=O)n2c1 [AZD-6482]
% of control [1]: 95% | % of control [2]: 97%

% of control [3]: 17%
SMILES: Cc1cc(-c2ccnc(Nc3cnn(C)c3)n2)ccc1CNC(=O)N1CC(OC(C)C)C1

SMILES: CN(C)C/C=C/C(=O)Nc1ccc(C(=O)N2CCCC(Nc3ncc(Cl)c(-c4c[nH]c5ccccc45)n3)C2)cc1 (stereo not drawn)
% of control [4]: 78%

dTM [5]: 4.2 K
SMILES: CN1CCN(C(=O)c2ccc3cc2OCCOCCNc2ccn4ncc-3c4n2)CC1

IC50 [6]: > 10 µM
SMILES: CCC(=O)N1CC[C@H](Nc2ncnc3c2CN(c2cnc(OC)c(C(F)(F)F)c2)CC3)C1 [LENIOLISIB]

% of control [7]: -6.26%
SMILES: Cn1cc(-n2cnc3c(NCc4nc5cc(Cl)c(Cl)cc5[nH]4)nc(N4CCOCC4)nc32)cn1

% of control [8]: 100%
SMILES: CCN(CC)CCCCNc1ncc2cc(-c3cc(OC)cc(OC)c3)c(NC(=O)NC(C)(C)C)nc2n1

SMILES: COCC(=O)NC/C=C/c1ccc2ncnc(Nc3ccc(Oc4ccc(C)nc4)c(C)c3)c2c1 [CP-724714]
% of control [9]: 59%

SMILES: COc1cc(N(C)c2ccnc3ccc(C(F)(F)F)cc23)cc(OC)c1OC
% binding [10]: 88%

% of control ([11]; at 1 µM): 76% | % of control ([11]; at 5 µM): 71%
SMILES: C=CC(=O)Nc1cccc(C(=O)Nc2ccc(Nc3cc(-c4[nH]c(SC)nc4C)ccn3)cc2)c1

SMILES: O=C(NOC[C@H](O)CO)c1ccc(F)c(F)c1Nc1ccc(I)cc1F
% of control [12]: 89%
